In patent US20060069132A1, “Azolecarboxamide herbicides” (priority 2004, published 2006):

Key:
Experiment in all cases: Test E pre-/postemergence herbicide test
bermudagrass = format: in vivo, Cynodon dactylon
From the text: (§1) Seeds of plant species selected from bipinnate beggarticks (Bidens bipinnata L.), hairy beggarticks (Bidens radiata Thuill.), bermudagrass (Cynodon dactylon (L.) Pers.), Surinam grass (Urochloa decumbens (Staph) R. D. Webster, previously named Brachiaria decumbens Stapf), large crabgrass (Digitaria sanguinalis (L.) Scop.), green foxtail (Setaria viridis (L.) P. Beauv.), goosegrass (Eleusine indica (L.) Gaertn.), johnsongrass (Sorghum halepense (L.) Pers.), kochia (Kochia scoparia (L.) Schrad.), pitted morningglory (Ipomoea lacunosa L.), purple nutsedge (Cyperus rotundus L.), common ragweed (Ambrosia elatior L.), mustard (Brassica nigra (L.) W. D. J. Koch), guineagrass (Panicum maximum Jacq.), dallisgrass (Paspalum dilatatum Poir.), barnyardgrass (Echinochloa crus-galli (L). P. Beauv.), southern sandbur (Cenchrus echinatus L.), common sowthistle (Sonchus oleraceous L.), prickly sida (Sida spinosa L.), Italian ryegrass (Lolium multiflorum Lam.), common purslane (Portulaca oleracea L.), broadleaf signalgrass (Brachiaria platyphylla (Griseb.) Nash), common groundsel (Senecio vulgaris L.), common chickweed (Stellaria media (L.) Vill/Cyr.), tropical spiderwort (Commelina benghalensis L.), annual bluegrass (Poa annua L.), downy bromegrass (Bromus tectorum L.), itchgrass (Rottboellia cochinchinensis (L.) L.f.), quackgrass (Elytrigia repens (L.) Nevski), Canada horseweed (Erigeron Canadensis L.), field bindweed (Convolvulus arvensis L.), spotted spurge (Euphorbia maculata L.), common mallow (Malva sylvestris (=s silvestris) L.), and Russian thistle (Salsola kali L. ssp. Ruthenica (Iljin) Soo) were planted and treated preemergence with test chemicals formulated in a non-phytotoxic solvent mixture which included a surfactant.
(§2) At the same time, plants selected from these weed species were treated with postemergence applications of some of the test chemicals formulated in the same manner. Plants ranged in height from 2 to 18 cm (1- to 4-leaf stage) for postemergence treatments. Treated plants and controls were maintained in a greenhouse for 12 to 14 days, after which time all species were compared to controls and visually evaluated. Plant response ratings, summarized in Table E, are based on a scale of 0 to 100 where 0 is no effect and 100 is complete control. A dash (-) response means no test result.

Surinam grass = format: in vivo, Urochloa decumbens
From the text: as §1, §2

large crabgrass = format: in vivo, Digitaria sanguinalis
From the text: as §1, §2

common ragweed = format: in vivo, Ambrosia elatior
From the text: as §1, §2

guineagrass = format: in vivo, Panicum maximum
From the text: as §1, §2

dallisgrass = format: in vivo, Paspalum dilatatum
From the text: as §1, §2

common sowthistle = format: in vivo, Sonchus oleraceous
From the text: as §1, §2

broadleaf signalgrass = format: in vivo, Brachiaria platyphylla
From the text: as §1, §2

common chickweed = format: in vivo, Stellaria media
From the text: as §1, §2

tropical spiderwort = format: in vivo, Commelina benghalensis
From the text: as §1, §2

annual bluegrass = format: in vivo, Poa annua
From the text: as §1, §2

downy bromegrass = format: in vivo, Bromus tectorum
From the text: as §1, §2

quackgrass = format: in vivo, Elytrigia repens
From the text: as §1, §2

Canada horseweed = format: in vivo, Erigeron Canadensis
From the text: as §1, §2

common mallow = format: in vivo, Malva sylvestris
From the text: as §1, §2

Russian thistle = format: in vivo, Salsola kali; details: Preemergence
From the text: as §1, §2

[1] = Postemergence, 500 g ai/ha, scale 0 to 100
[2] = Postemergence, 250 g ai/ha, scale 0 to 100
[3] = Preemergence, 62 g ai/ha, scale 0 to 100
[4] = Preemergence, 125 g ai/ha, scale 0 (no effect) to 100 (complete control)
[5] = Preemergence, 250 g ai/ha, scale 0 (no effect) to 100 (complete control)
[6] = Preemergence, 500 g ai/ha, scale 0 (no effect) to 100 (complete control)
[7] = postemergence, 125 g ai/ha, scale 0 to 100
[8] = postemergence, 62 g ai/ha, scale 0 to 100

CCn1nc(C(C)(C)C)cc1C(=O)Nc1cc(C(=O)N(C)C)ccc1F [Compound 6, N-[5-[(dimethylamino)carbonyl]-2-fluorophenyl]-3-(1,1-dimethylethyl)-1-ethyl-1H-pyrazole-5-carboxamide]
Plant response rating, Bermudagrass (bermudagrass; [1]): 98 | Plant response rating, Bermudagrass (bermudagrass; [2]): 90 | Plant response rating, Bermudagrass (bermudagrass; [3]): 90 | Plant response rating, Bermudagrass (bermudagrass; [4]): 95 | Plant response rating, Bermudagrass (bermudagrass; [5]): 95 | Plant response rating, Bermudagrass (bermudagrass; [6]): 100 | Plant response rating, Bermudagrass (bermudagrass; [7]): 80 | Plant response rating, Bermudagrass (bermudagrass; [8]): 35 | Plant response rating, Surinam Grass (Surinam grass; [1]): 98 | Plant response rating, Surinam Grass (Surinam grass; [2]): 95 | Plant response rating, Surinam Grass (Surinam grass; [3]): 85 | Plant response rating, Surinam Grass (Surinam grass; Preemergence, 125 g ai/ha, scale 0 to 100): 90 | Plant response rating, Surinam Grass (Surinam grass; [6]): 100 | Plant response rating, Surinam Grass (Surinam grass; [7]): 90 | Plant response rating, Surinam Grass (Surinam grass; [8]): 75 | Plant response rating, Crabgrass, Large (large crabgrass; [1]): 98 | Plant response rating, Crabgrass, Large (large crabgrass; [2]): 98 | Plant response rating, Crabgrass, Large (large crabgrass; [3]): 80 | Plant response rating, Crabgrass, Large (large crabgrass; [4]): 90 | Plant response rating, Crabgrass, Large (large crabgrass; [6]): 100 | Plant response rating, Crabgrass, Large (large crabgrass; [7]): 90 | Plant response rating, Crabgrass, Large (large crabgrass; [8]): 75 | Plant response rating, Ragweed (common ragweed; [1]): 95 | Plant response rating, Ragweed (common ragweed; [2]): 95 | Plant response rating, Ragweed (common ragweed; [3]): 50 | Plant response rating, Ragweed (common ragweed; [4]): 80 | Plant response rating, Ragweed (common ragweed; [6]): 95 | Plant response rating, Ragweed (common ragweed; [7]): 90 | Plant response rating, Ragweed (common ragweed; [8]): 75 | Plant response rating, Guineagrass (guineagrass; [1]): 98 | Plant response rating, Guineagrass (guineagrass; [2]): 95 | Plant response rating, Guineagrass (guineagrass; [3]): 95 | Plant response rating, Guineagrass (guineagrass; [4]): 95 | Plant response rating, Guineagrass (guineagrass; [5]): 95 | Plant response rating, Guineagrass (guineagrass; [6]): 100 | Plant response rating, Guineagrass (guineagrass; [7]): 90 | Plant response rating, Guineagrass (guineagrass; [8]): 80 | Plant response rating, Dallisgrass (dallisgrass; [1]): 90 | Plant response rating, Dallisgrass (dallisgrass; [2]): 80 | Plant response rating, Dallisgrass (dallisgrass; [3]): 90 | Plant response rating, Dallisgrass (dallisgrass; [4]): 95 | Plant response rating, Dallisgrass (dallisgrass; [5]): 95 | Plant response rating, Dallisgrass (dallisgrass; [6]): 100 | Plant response rating, Dallisgrass (dallisgrass; [7]): 75 | Plant response rating, Dallisgrass (dallisgrass; [8]): 60 | Plant response rating, Sowthistle (common sowthistle; [1]): 100 | Plant response rating, Sowthistle (common sowthistle; [2]): 100 | Plant response rating, Sowthistle (common sowthistle; [3]): 95 | Plant response rating, Sowthistle (common sowthistle; [4]): 95 | Plant response rating, Sowthistle (common sowthistle; [5]): 100 | Plant response rating, Sowthistle (common sowthistle; [6]): 100 | Plant response rating, Sowthistle (common sowthistle; [7]): 95 | Plant response rating, Sowthistle (common sowthistle; [8]): 75 | Plant response rating, Signalgrass (broadleaf signalgrass; [1]): 98 | Plant response rating, Signalgrass (broadleaf signalgrass; [2]): 95 | Plant response rating, Signalgrass (broadleaf signalgrass; [3]): 75 | Plant response rating, Signalgrass (broadleaf signalgrass; [4]): 75 | Plant response rating, Signalgrass (broadleaf signalgrass; [6]): 95 | Plant response rating, Signalgrass (broadleaf signalgrass; [7]): 90 | Plant response rating, Signalgrass (broadleaf signalgrass; [8]): 35 | Plant response rating, Chickweed (common chickweed; [1]): 100 | Plant response rating, Chickweed (common chickweed; [2]): 100 | Plant response rating, Chickweed (common chickweed; [3]): 90 | Plant response rating, Chickweed (common chickweed; [4]): 95 | Plant response rating, Chickweed (common chickweed; [5]): 95 | Plant response rating, Chickweed (common chickweed; [6]): 100 | Plant response rating, Chickweed (common chickweed; [7]): 100 | Plant response rating, Chickweed (common chickweed; [8]): 100 | Plant response rating, Spiderwort (tropical spiderwort; [1]): 95 | Plant response rating, Spiderwort (tropical spiderwort; [2]): 90 | Plant response rating, Spiderwort (tropical spiderwort; [3]): 70 | Plant response rating, Spiderwort (tropical spiderwort; [4]): 75 | Plant response rating, Spiderwort (tropical spiderwort; [5]): 80 | Plant response rating, Spiderwort (tropical spiderwort; [6]): 95 | Plant response rating, Spiderwort (tropical spiderwort; [7]): 75 | Plant response rating, Spiderwort (tropical spiderwort; [8]): 60 | Plant response rating, Bluegrass (annual bluegrass; [1]): 98 | Plant response rating, Bluegrass (annual bluegrass; [2]): 98 | Plant response rating, Bluegrass (annual bluegrass; [3]): 100 | Plant response rating, Bluegrass (annual bluegrass; [4]): 100 | Plant response rating, Bluegrass (annual bluegrass; [6]): 100 | Plant response rating, Bluegrass (annual bluegrass; [7]): 98 | Plant response rating, Bluegrass (annual bluegrass; [8]): 98 | Plant response rating, Bromegrass, Downy (downy bromegrass; [1]): 100 | Plant response rating, Bromegrass, Downy (downy bromegrass; [2]): 100 | Plant response rating, Bromegrass, Downy (downy bromegrass; [3]): 90 | Plant response rating, Bromegrass, Downy (downy bromegrass; [4]): 95 | Plant response rating, Bromegrass, Downy (downy bromegrass; [5]): 95 | Plant response rating, Bromegrass, Downy (downy bromegrass; [6]): 100 | Plant response rating, Bromegrass, Downy (downy bromegrass; [7]): 98 | Plant response rating, Bromegrass, Downy (downy bromegrass; [8]): 95 | Plant response rating, Quackgrass (quackgrass; [1]): 98 | Plant response rating, Quackgrass (quackgrass; [2]): 95 | Plant response rating, Quackgrass (quackgrass; [3]): 95 | Plant response rating, Quackgrass (quackgrass; [4]): 100 | Plant response rating, Quackgrass (quackgrass; [6]): 100 | Plant response rating, Quackgrass (quackgrass; [7]): 90 | Plant response rating, Quackgrass (quackgrass; [8]): 80 | Plant response rating, Horseweed (Canada horseweed; [1]): 100 | Plant response rating, Horseweed (Canada horseweed; [2]): 100 | Plant response rating, Horseweed (Canada horseweed; [3]): 100 | Plant response rating, Horseweed (Canada horseweed; [4]): 100 | Plant response rating, Horseweed (Canada horseweed; [5]): 100 | Plant response rating, Horseweed (Canada horseweed; [6]): 100 | Plant response rating, Horseweed (Canada horseweed; [7]): 100 | Plant response rating, Horseweed (Canada horseweed; [8]): 75 | Plant response rating, Mallow (common mallow; [1]): 100 | Plant response rating, Mallow (common mallow; [2]): 100 | Plant response rating, Mallow (common mallow; [3]): 70 | Plant response rating, Mallow (common mallow; [4]): 100 | Plant response rating, Mallow (common mallow; [6]): 100 | Plant response rating, Mallow (common mallow; [7]): 95 | Plant response rating, Mallow (common mallow; [8]): 65 | Plant response rating, Thistle (Russian thistle; 62 g ai/ha, scale 0 to 100): 50 | Plant response rating, Thistle (Russian thistle; 125 g ai/ha, scale 0 to 100): 70 | Plant response rating, Thistle (Russian thistle; 250 g ai/ha, scale 0 (no effect) to 100 (complete control)): 70 | Plant response rating, Thistle (Russian thistle; 500 g ai/ha, scale 0 (no effect) to 100 (complete control)): 80
